Results as given in patent US20150126581A1, “MicroRNAs and Uses Thereof” (The University of Western Australia, priority 2012, published 2015).

Assays:
[1] = system: obese diabetic mice; conditions: cited from earlier work
[2] = system: HeLa cells; conditions: stated ability of mimosine (arrest in G1); cited from earlier work
[3] = system: HeLa cells; test: CellTiter 96 AQueous One (MTS) endpoint growth assay with mimosine; type: cell-based, human; conditions: mimosine 50 and 250 μM, 3 d exposure (Day 5 post miRNA transfection)
Protocol: Endpoint growth assays were then performed using the CellTiter 96® AQueous One Solution Cell Proliferation System (MTS) (Promega, USA) to determine effects of miRNAs and mimosine on cell proliferation. HeLa cells were transiently transfected with miRNA negative control or hsa-miR-331-3p/hsa-miR-642-5p as described above, and 5000 transiently transfected HeLa cells were plated in 96 well plates. Plates were incubated in a 37° C. incubator (5% CO2) for 2 days and then exposed for a further 3 days to mimosine (0, 50 or 250 μM). Media was then replaced with a MTS substrate/growth media mixture (180 μL of growth media, 20 μL MTS reagent) and left for 30 min at 37° C. Absorbance was measured using a Fluostar Optima Instrument (Walker scientific) at 450 nm.

[4] = system: HeLa cells; test: Observation of HeLa cell morphology and size under mimosine; type: cell-based, human; conditions: increasing concentrations of mimosine
Protocol: The effect of the combination of hsa-miR-331-3p and hsa-miR-642-5p on the transient effects of the DOHH inhibitor mimosine in HeLa cells was assessed. Initially, the xCELLigence™ System was used but growth curves could not be established using mimosine that reflected the observed changes in cell viability (data not shown). […] This was attributed to the ability of mimosine to arrest cell in […] and increase cell size by up to 25%.

N=C(N)NCCCCCCCN [GC7, N1-guanyl-1,7-diaminoheptane]
Glucose tolerance [1]: improved glucose tolerance
Insulin release [1]: increased insulin release
β cell mass [1]: enhanced β cell mass

NC(Cn1ccc(=O)c(O)c1)C(=O)O (stereo not drawn) [mimosine]
Increase of cell size [2]: up to 25%
HeLa cell proliferation (MTS), mimosine alone [3]: significant block of cell proliferation
HeLa cell morphology [4]: changed the morphology of HeLa cells from a spindle like epithelial morphology to a large, round and flattened morphology
